Results as given in ChEMBL document CHEMBL1127007, “Quinazolinones 2: QSAR and in vivo characterization of AT1 selective AII antagonists” (Bioorg Med Chem Lett, 1993).
pIC50: −log10 of the molar value. Several values for one entry are separate records, joined by “and”; a condition that tells them apart may be missing. Equal values may be shown once.

Columns and labels:
[1] = target: T1, Type-2 angiotensin II receptor (Homo sapiens) (UniProt P50052); assay: In vitro antagonist activity against the Angiotensin II (type 2) receptor.; type: functional
T1 sequence (whole entry): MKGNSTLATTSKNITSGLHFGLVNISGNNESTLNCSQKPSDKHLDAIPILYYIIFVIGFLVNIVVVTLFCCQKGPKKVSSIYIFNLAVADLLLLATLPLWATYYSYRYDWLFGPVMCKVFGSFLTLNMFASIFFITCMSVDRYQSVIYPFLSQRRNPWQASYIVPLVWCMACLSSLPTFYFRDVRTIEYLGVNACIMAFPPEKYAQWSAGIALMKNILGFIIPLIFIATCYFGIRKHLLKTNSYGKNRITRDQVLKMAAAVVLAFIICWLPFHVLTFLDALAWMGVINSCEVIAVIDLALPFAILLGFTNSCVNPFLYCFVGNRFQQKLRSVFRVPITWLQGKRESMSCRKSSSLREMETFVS

[2] = target: T2, Type-1 angiotensin II receptor (Oryctolagus cuniculus, UniProt P34976); assay: Displacement of [125I]Sar1-Ile8-AII (without BSA) from type 1 Angiotensin II receptor of rabbit aorta; type: tissue-based
T2 sequence (P34976 whole entry): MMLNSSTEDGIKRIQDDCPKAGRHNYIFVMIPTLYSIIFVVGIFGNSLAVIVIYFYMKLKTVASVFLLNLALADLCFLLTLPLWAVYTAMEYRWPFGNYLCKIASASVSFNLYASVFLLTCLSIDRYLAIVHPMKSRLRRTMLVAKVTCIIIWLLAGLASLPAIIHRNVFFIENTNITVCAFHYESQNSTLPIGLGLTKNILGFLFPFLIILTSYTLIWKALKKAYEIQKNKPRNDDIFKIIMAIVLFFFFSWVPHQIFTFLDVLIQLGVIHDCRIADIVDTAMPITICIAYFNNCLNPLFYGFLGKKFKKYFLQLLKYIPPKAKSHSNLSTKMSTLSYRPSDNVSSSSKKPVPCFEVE

[3] = target: T2, Type-1 angiotensin II receptor; assay: Ability to displace [125I]Sar1-Ile8-AII from angiotensin II receptor, type 1 in rabbit aorta in presence of 0.2% bovine serum albumin (BSA) was determined in vitro; type: tissue-based
[4] = target: Angiotensin II receptor (Rattus norvegicus) (UniProt P29089+P25095+P35351); assay: Duration of action as time for pressor response to fall below 30% for a single bolus by intravenous dose; type: functional, organism-based
[5] = test system: Rattus norvegicus; assay: Compound was evaluated in vivo for inhibition of the AII pressor response in normotensive rat at dose 1 mg/kg, iv after 0.5 hour; type: functional
[6] = test system: Rattus norvegicus; assay: Compound was evaluated in vivo for inhibition of the AII pressor response in normotensive rat at dose 1 mg/kg, iv after 0.1 hour; type: functional
[7] = test system: Rattus norvegicus; assay: Compound was evaluated in vivo for inhibition of the AII pressor response in normotensive rat at dose 0.3 mg/kg, iv; type: functional
[8] = test system: Rattus norvegicus; assay: Compound was evaluated in vivo for inhibition of the AII pressor response in normotensive rat at dose 1 mg/kg, iv after 1 hour; type: functional
[9] = test system: Rattus norvegicus; assay: The duration of action is expressed as the time for the % inhibition of pressor response to fall below 30% for a single bolus of the drug administered perorally.; type: functional
[10] = test system: Rattus norvegicus; assay: Compound was evaluated in vivo for inhibition of the AII pressor response in normotensive rat at dose 0.3 mg/kg, p.o. after 3.5 hour; type: functional; conditions: route oral
[11] = test system: Rattus norvegicus; assay: Compound was evaluated in vivo for inhibition of the AII pressor response in normotensive rat at dose 1 mg/kg, iv after >6 hour; type: functional
[12] = test system: Rattus norvegicus; assay: Compound was evaluated in vivo for inhibition of the AII pressor response in normotensive rat at dose 10 mg/kg, iv after 2.2 hour; type: functional
[13] = test system: Rattus norvegicus; assay: Compound was evaluated in vivo for inhibition of the AII pressor response in normotensive rat at dose 3 mg/kg, iv after 0.9 hour; type: functional
[14] = test system: Rattus norvegicus; assay: Compound was evaluated in vivo for inhibition of the AII pressor response in normotensive rat at dose 3 mg/kg, p.o. after 1.1 hour; type: functional; conditions: route oral
[15] = test system: Rattus norvegicus; assay: Compound was evaluated in vivo for inhibition of the AII pressor response in normotensive rat at dose 1 mg/kg, iv after 0.3 hour; type: functional
[16] = test system: Rattus norvegicus; assay: Compound was evaluated in vivo for inhibition of the AII pressor response in normotensive rat at dose 0.3 mg/kg, p.o. after >3.5 hour; type: functional; conditions: route oral
[17] = test system: Rattus norvegicus; assay: Compound was evaluated in vivo for inhibition of the AII pressor response in normotensive rat at dose 1 mg/kg, p.o. after >5 hour; type: functional; conditions: route oral
[18] = test system: Rattus norvegicus; assay: Compound was evaluated in vivo for inhibition of the AII pressor response in normotensive rat at dose 0.03 mg/kg, iv; type: functional
[19] = test system: Rattus norvegicus; assay: Compound was evaluated in vivo for inhibition of the AII pressor response in normotensive rat at dose 0.03 mg/kg, po; type: functional
[20] = test system: Rattus norvegicus; assay: Compound was evaluated in vivo for inhibition of the AII pressor response in normotensive rat at dose 0.1 mg/kg, iv after 2.5 hour; type: functional
[21] = test system: Rattus norvegicus; assay: Compound was evaluated in vivo for inhibition of the AII pressor response in normotensive rat at dose 0.1 mg/kg, p.o. after >3 hour; type: functional; conditions: route oral
[22] = test system: Rattus norvegicus; assay: Compound was evaluated in vivo for inhibition of the AII pressor response in normotensive rat at dose 0.3 mg/kg, iv after 4 hour; type: functional
[23] = test system: Rattus norvegicus; assay: Compound was evaluated in vivo for inhibition of the AII pressor response in normotensive rat at dose 1 mg/kg, iv after 0.2 hour; type: functional
[24] = test system: Rattus norvegicus; assay: Compound was evaluated in vivo for inhibition of the AII pressor response in normotensive rat at dose 1 mg/kg, iv after 1.2 hour; type: functional
[25] = test system: Rattus norvegicus; assay: Compound was evaluated in vivo for inhibition of the AII pressor response in normotensive rat at dose 1 mg/kg, iv after 1.8 hour; type: functional
[26] = test system: Rattus norvegicus; assay: Compound was evaluated in vivo for inhibition of the AII pressor response in normotensive rat at dose 3 mg/kg, iv after >6 hour; type: functional
[27] = test system: Rattus norvegicus; assay: Compound was evaluated in vivo for inhibition of the AII pressor response in normotensive rat at dose 3 mg/kg, p.o. after >6 hour; type: functional; conditions: route oral
[28] = test system: Rattus norvegicus; assay: Compound was evaluated in vivo for inhibition of the AII pressor response in normotensive rat at dose 1 mg/kg, iv; type: functional
[29] = test system: Rattus norvegicus; assay: Compound was evaluated in vivo for inhibition of the AII pressor response in normotensive rat at dose 3 mg/kg, iv after 2.5 hour; type: functional
[30] = test system: Rattus norvegicus; assay: Compound was evaluated in vivo for inhibition of the AII pressor response in normotensive rat at dose 3 mg/kg, p.o. after 4.2 hour; type: functional; conditions: route oral
[31] = test system: Rattus norvegicus; assay: Compound was evaluated in vivo for inhibition of the AII pressor response in normotensive rat at dose 1 mg/kg, iv after 4.5 hour; type: functional
[32] = test system: Rattus norvegicus; assay: Compound was evaluated in vivo for inhibition of the AII pressor response in normotensive rat at dose 1 mg/kg, p.o. after 0.2 hour; type: functional; conditions: route oral
[33] = test system: Rattus norvegicus; assay: Compound was evaluated in vivo for inhibition of the AII pressor response in normotensive rat at dose 1 mg/kg, iv after <0.5 hour; type: functional

Structure (SMILES)	Activity [1] [nM]	pIC50 [2]	pIC50 [3]	Duration [4]	further results
CCCCc1nc2ccc(CC)cc2c(=O)n1Cc1ccc(-c2ccccc2-c2nnn[nH]2)cc1			8.40		
CC(=O)Nc1ccc2nc(-c3ccc(-c4ccccc4C(=O)O)cc3)n(Cc3ccc(-c4ccccc4-c4nn[nH]n4)cc3)c(=O)c2c1			7.30		
CCCCc1nc2ccc(N(C)C(=O)OCc3ccccc3)cc2c(=O)n1Cc1ccc(-c2ccccc2-c2nn[nH]n2)cc1	> 1000			0 h	inhibition in vivo at 0.3 mg/kg [7]: 28%
CCCCc1nc2ccc(-c3ccccn3)cc2c(=O)n1Cc1ccc(-c2ccccc2-c2nnn[nH]2)cc1		8.30			
CCCCc1nc2ccc(N(C)C(=O)OCC(C)C)cc2c(=O)n1Cc1ccc(-c2ccccc2-c2nn[nH]n2)cc1	> 1000				Duration [9]: 3.5 h; inhibition in vivo at 0.3 mg/kg [10]: 60%; inhibition in vivo at 1 mg/kg [11]: 72%
CCCCc1nc2ccc(N(C)C(=O)N(C)C(C)C)cc2c(=O)n1Cc1ccc(-c2ccccc2-c2nnn[nH]2)cc1		9.24			
CCCCc1nc2ccc(NC)cc2c(=O)n1Cc1ccc(-c2ccccc2-c2nnn[nH]2)cc1			8.70		
CCCCc1nc2ccc(NC(=O)OCC(C)C)cc2c(=O)n1Cc1ccc(-c2ccccc2-c2nnn[nH]2)cc1		8.80	8.19		
CCCCc1nc2ccc(N(C)C(=O)OCC(C)C)cc2c(=O)n1Cc1ccc(-c2ccccc2-c2nnn[nH]2)cc1		8.80	8.47		
O=C(O)c1ccccc1-c1ccc(-c2nc3ccccc3c(=O)n2Cc2ccc(-c3ccccc3-c3nn[nH]n3)cc2)cc1			7.70		
Nc1ccc2nc(-c3ccc(-c4ccccc4C(=O)O)cc3)n(Cc3ccc(-c4ccccc4-c4nn[nH]n4)cc3)c(=O)c2c1			7.48		
Cc1ccc2nc(-c3ccc(-c4ccccc4C(=O)O)cc3)n(Cc3ccc(-c4ccccc4-c4nn[nH]n4)cc3)c(=O)c2c1			7.04		
O=C(O)c1ccccc1-c1ccc(-c2nc3ccc([N+](=O)[O-])cc3c(=O)n2Cc2ccc(-c3ccccc3-c3nnn[nH]3)cc2)cc1			6.03		
CCCCc1nc2ccc(N(C)C(=O)OCc3ccccc3)cc2c(=O)n1Cc1ccc(-c2ccccc2-c2nnn[nH]2)cc1			9.08		
CCCCC(=O)Nc1ccc2nc(CCCC)n(Cc3ccc(-c4ccccc4-c4nnn[nH]4)cc3)c(=O)c2c1		8.05			

Continued, in another order:

Activity [1] [nM]	pIC50 [2]	pIC50 [3]	Duration [4]	Structure (SMILES)	further results
> 1000	8.12	8.52	0.5 h	CCCCc1nc2ccc(S(C)(=O)=O)cc2c(=O)n1Cc1ccc(-c2ccccc2-c2nn[nH]n2)cc1	inhibition in vivo at 1 mg/kg [5]: 79%
> 1000		8.15	0.1 h	CCCCc1nc2ccc(SC)cc2c(=O)n1Cc1ccc(-c2ccccc2-c2nn[nH]n2)cc1	inhibition in vivo at 1 mg/kg [6]: 44%
	8.96	8.10		CCCCc1nc2ccc(NCc3ccccc3)cc2c(=O)n1Cc1ccc(-c2ccccc2-c2nn[nH]n2)cc1	
		7.57		CCCCc1nc2ccc(O)cc2c(=O)n1Cc1ccc(-c2ccccc2-c2nnn[nH]2)cc1	
> 1000		8.37	1 h	CCCCc1nc2ccc(NC(=O)OCc3ccccc3)cc2c(=O)n1Cc1ccc(-c2ccccc2-c2nn[nH]n2)cc1	inhibition in vivo at 1 mg/kg [8]: 84%
> 1000		8.22		CCCCc1nc2ccccc2c(=O)n1Cc1ccc(-c2ccccc2-c2nn[nH]n2)cc1	Duration [9]: 1.1 h; inhibition in vivo at 10 mg/kg [12]: 98%; inhibition in vivo at 3 mg/kg [13]: 70%; inhibition in vivo at 3 mg/kg [14]: 54%; inhibition in vivo at 1 mg/kg [15]: 40%
> 1000			> 6 h and 4 h and 2.5 h	CCCCc1nc2ccc(NC(=O)N(C)C(C)C)cc2c(=O)n1Cc1ccc(-c2ccccc2-c2nn[nH]n2)cc1	Duration [9]: >5 h and >3.5 h and >3 h; inhibition in vivo at 0.3 mg/kg [16]: 80%; inhibition in vivo at 1 mg/kg [17]: 84%; inhibition in vivo at 0.03 mg/kg [18]: 15%; inhibition in vivo at 0.03 mg/kg [19]: 16%; inhibition in vivo at 0.1 mg/kg [20]: 85%; inhibition in vivo at 0.1 mg/kg [21]: 58%; inhibition in vivo at 0.3 mg/kg [22]: 96%; inhibition in vivo at 1 mg/kg [11]: 94%
> 1000			0.2 h	CCCCc1nc2cc(OC)c(OC)cc2c(=O)n1Cc1ccc(-c2ccccc2-c2nn[nH]n2)cc1	inhibition in vivo at 1 mg/kg [23]: 30%
	7.52			CCCCc1nc2ccc(-c3ccc(Cl)cc3)cc2c(=O)n1Cc1ccc(-c2ccccc2-c2nn[nH]n2)cc1	
> 1000			1.2 h	CCCCc1nc2ccc(NC)cc2c(=O)n1Cc1ccc(-c2ccccc2-c2nn[nH]n2)cc1	inhibition in vivo at 1 mg/kg [24]: 94%
	8.96			CCCCc1nc2ccc(C)cc2c(=O)n1Cc1ccc(-c2ccccc2-c2nnn[nH]2)cc1	
		6.92		CCCCc1nc2ccc(NS(=O)(=O)C(F)(F)F)cc2c(=O)n1Cc1ccc(-c2ccccc2-c2nn[nH]n2)cc1	
> 1000	9.05	9.00	1.8 h	CCCCc1nc2ccc([S+](C)[O-])cc2c(=O)n1Cc1ccc(-c2ccccc2-c2nn[nH]n2)cc1 (stereo not given)	inhibition in vivo at 1 mg/kg [25]: 89%
> 1000	8.40	8.30		CCCCc1nc2ccc(C(C)C)cc2c(=O)n1Cc1ccc(-c2ccccc2-c2nn[nH]n2)cc1	Duration [9]: >6 h; inhibition in vivo at 3 mg/kg [26]: 90%; inhibition in vivo at 3 mg/kg [27]: 72%; inhibition in vivo at 1 mg/kg [15]: 34%
> 1000		9.00	0 h	CCCCc1nc2ccc(OC(=O)NC(C)C)cc2c(=O)n1Cc1ccc(-c2ccccc2-c2nn[nH]n2)cc1	inhibition in vivo at 0.3 mg/kg [7]: 30%
> 1000				CCCCc1nc2ccc(C)cc2c(=O)n1Cc1ccc(-c2ccccc2-c2nn[nH]n2)cc1	Duration [9]: 4.2 h; inhibition in vivo at 1 mg/kg [28]: 28%; inhibition in vivo at 3 mg/kg [29]: 76%; inhibition in vivo at 3 mg/kg [30]: 64%
> 1000			4.5 h	CCCCc1nc2ccc(N)cc2c(=O)n1Cc1ccc(-c2ccccc2-c2nn[nH]n2)cc1	Duration [9]: 0.2 h; inhibition in vivo at 1 mg/kg [31]: 93%; inhibition in vivo at 1 mg/kg [32]: 32%
> 1000		8.30	> 0.5 h	CCCCc1nc2ccc(N(C)C)cc2c(=O)n1Cc1ccc(-c2ccccc2-c2nn[nH]n2)cc1	inhibition in vivo at 1 mg/kg [33]: 55%
